This note sets out measurements from PMC7408349, “Synthesis and Anticancer Activity of Dimeric Polyether Ionophores” (Biomolecules, 2020).

In series [1] the test system is MV-4-11 cells (human acute myeloid leukemia cell line). The series can be described thus: In vitro antiproliferative activity, SRB assay, MV-4-11. Format: cell-based. The settings on record: MV4-11, 72 h incubation, mean ± SD, LAS, MON, SAL as sodium salts. The source says:
(§1) Each experiment was repeated at least three times separately.

Series [2] relates to JIMT-1 cells (human breast cancer cell line). The series can be described thus: In vitro antiproliferative activity, SRB assay, JIMT-1. The settings on record: mean ± SD, LAS, MON, SAL as sodium salts, '---' = inactive (undetectable IC50 in tested concentration range). The class given is cell-based.
Text: as §1

Series [3] deals with MCF-7 cells (human breast cancer cell line). The series is described as follows: In vitro antiproliferative activity, SRB assay, MCF-7. The settings on record: MCF7, 72 h incubation, mean ± SD, LAS, MON, SAL as sodium salts, '---' = inactive (undetectable IC50 in tested concentration range). The class given is cell-based.
Text: as §1

The subject of series [4] is SKBR-3 cells (human breast cancer cell line). The series is described as follows: In vitro antiproliferative activity, SRB assay, SKBR-3. The settings on record: mean ± SD, LAS, MON, SAL as sodium salts. Format: cell-based.
Text: as §1

The test system of series [5] is LoVo cells (human colon adenocarcinoma, drug-sensitive variant). The series is described as follows: In vitro antiproliferative activity, SRB assay, LoVo. Format: cell-based. The settings on record: 72 h incubation, mean ± SD, LAS, MON, SAL as sodium salts.
Text: as §1

Series [6] has as its system BALB/3T3 cells (normal embryonic fibroblasts). The series is described as follows: Cytotoxicity on non-tumor cells, SRB assay, BALB/3T3. Format: cell-based, murine. The settings on record: Mus musculus, non-tumor cell line, 72 h incubation, mean ± SD, '---' = inactive (undetectable IC50 in tested concentration range).
Text: as §1

The test system of series [7] is MCF10A cells (normal mammary epithelial cell line). The series is described as follows: Cytotoxicity on non-tumor cells, SRB assay, MCF10A. Format: cell-based. The settings on record: Homo sapiens, MCF-10A, 72 h incubation, mean ± SD, '---' = inactive (undetectable IC50 in tested concentration range).
Text: as §1

In series [8] the test system is LoVo/DX cells (doxorubicin-resistant human colon adenocarcinoma sub-line, ABCB1 overexpression). The series can be described thus: In vitro antiproliferative activity, SRB assay, LoVo/DX. The settings on record: Homo sapiens, LoVo/DX, 72 h, read-out: IC50 LoVo/DX.
Test in series [9]: as above
Where [10] appears, read: Homo sapiens, JIMT-1, 72 h incubation.
The mark [11] stands for this setting: Homo sapiens, SK-BR-3, 72 h incubation.
Setting [12] is: mouse (BALB/3T3), human (LoVo/DX).

Turning to `CC[C@@H](C(=O)[C@@H](C)[C@@H](O)[C@H](C)[C@@H]1O[C@@H]([C@@H](CC)C(=O)O)CC[C@@H]1C)[C@H]1O[C@]2(C=C[C@@H](O)[C@]3(CC[C@@](C)([C@H]4CC[C@](O)(CC)[C@H](C)O4)O3)O2)[C@H](C)C[C@@H]1C` [SAL, salinomycin], the IC50 in series [1] is 100 ± 30 nM; in series [2] (setting [10]), 2670 nM; in series [3] it was 930 ± 330 nM; in series [4] (setting [11]), 270 nM; in series [5], 250 ± 70 nM; in series [6], 1550 ± 860 nM. In addition, the figures for the IC50 in series [7] and in series [8] were 1280 ± 460 nM and 610 ± 210 nM, respectively. Also, the figures for the selectivity ratio at 72 h in “in vitro” (human) and in “in vitro” (setting [12]) were 2.1 and 2.54, respectively.
Consider `N.N.[Cl][Pt][Cl]` [CIS, cisplatin], for which the IC50 in series [2] (72 h incubation) came out at 8230 nM; in series [4] (72 h incubation) it was 4170 nM.
On to `C=C(C)[C@@H]1CC[C@]2(C(=O)OCc3cn([C@H]4C=C[C@]5(O[C@H]([C@@H](CC)C(=O)[C@@H](C)[C@@H](O)[C@H](C)[C@@H]6O[C@@H]([C@@H](CC)C(=O)O)CC[C@@H]6C)[C@@H](C)C[C@H]5C)O[C@@]45CC[C@@](C)([C@H]4CC[C@](O)(CC)[C@H](C)O4)O5)nn3)CC[C@]3(C)[C@H](CC[C@@H]4[C@@]5(C)CC[C@H](O)C(C)(C)[C@@H]5CC[C@]43C)[C@@H]12` [compound 19, Salinomycin-betulinic acid dimer], for which the IC50 in [1] was determined as 290 ± 140 nM; in series [2] (setting [10]), 7090 ± 2220 nM; in [3] it was 6870 ± 3280 nM; in series [4] (setting [11]), 600 ± 260 nM; in series [5], 2660 ± 980 nM; in [6], 6220 ± 1440 nM. The compound also had an IC50 in [7] of 7020 ± 2440 nM.
Regarding `CC[C@@]1([C@@H]2O[C@@H]([C@H]3O[C@@](O)(CO)[C@H](C)C[C@@H]3C)C[C@@H]2C)CC[C@H]([C@]2(C)CC[C@]3(C[C@H](O)[C@@H](C)[C@@H]([C@@H](C)[C@@H](OC)[C@H](C)C(=O)O)O3)O2)O1` [MON, monensin], the IC50 in series [1] amounted to 30 ± 20 nM; in [2] (setting [10]), 1170 ± 140 nM; in series [3], 510 ± 120 nM; in series [4] (setting [11]), 40 ± 20 nM; in series [5] it was 90 ± 60 nM; in [6], 1100 ± 240 nM. The IC50 in series [7] stood at 870 ± 230 nM; in series [8], 260 ± 110 nM. For the same compound, the selectivity ratio at 72 h in “in vitro” (human) was found to be 3.35; in the series “in vitro” (setting [12]), 4.23.
On to `C=C(C)[C@@H]1CC[C@]2(C(=O)NCc3cn([C@H]4C=C[C@]5(O[C@H]([C@@H](CC)C(=O)[C@@H](C)[C@@H](O)[C@H](C)[C@@H]6O[C@@H]([C@@H](CC)C(=O)O)CC[C@@H]6C)[C@@H](C)C[C@H]5C)O[C@@]45CC[C@@](C)([C@H]4CC[C@](O)(CC)[C@H](C)O4)O5)nn3)CC[C@]3(C)[C@H](CC[C@@H]4[C@@]5(C)CC[C@H](O)C(C)(C)[C@@H]5CC[C@]43C)[C@@H]12` [compound 18, Salinomycin-betulinic acid dimer], for which the IC50 in [1] worked out at 100 ± 90 nM; in series [2] (setting [10]), 7280 ± 3110 nM; in series [3] it was 4190 ± 1820 nM; in [4] (setting [11]) it was 340 ± 130 nM; in series [5] it was 430 ± 130 nM; in series [6], 4870 ± 1560 nM. Also, the IC50 in [7] stood at 10300 ± 4470 nM; in series [8] it was 14100 ± 6900 nM. Also, the selectivity ratio at 72 h in “in vitro” (human) was 0.73; in the series “in vitro” (setting [12]), 0.35.
On to `COc1cccc2c1C(=O)c1c(O)c3c(c(O)c1C2=O)C[C@@](O)(C(=O)CO)C[C@@H]3O[C@H]1C[C@H](N)[C@H](O)[C@H](C)O1` [DX, doxorubicin], for which the IC50 stood at 20 ± 4 nM in [1]; 400 ± 100 nM in series [2] (setting [10]); 130 ± 50 nM in [3]; 110 ± 10 nM in series [4] (setting [11]); 110 ± 4 nM in [5]; 260 ± 140 nM in series [6]. For the same compound, the IC50 in series [7] amounted to 170 ± 30 nM; in [8] it was 8740 ± 1460 nM. The results for the selectivity ratio at 72 h in series [9] (human) and in series [9] (setting [12]) were 0.02 and 0.03, respectively.
As to `C=C(C)[C@@H]1CC[C@]2(C(=O)O)CC[C@]3(C)[C@H](CC[C@@H]4[C@@]5(C)CC[C@H](OC(=O)OCc6cn([C@H]7C=C[C@]8(O[C@H]([C@@H](CC)C(=O)[C@@H](C)[C@@H](O)[C@H](C)[C@@H]9O[C@@H]([C@@H](CC)C(=O)O)CC[C@@H]9C)[C@@H](C)C[C@H]8C)O[C@@]78CC[C@@](C)([C@H]7CC[C@](O)(CC)[C@H](C)O7)O8)nn6)C(C)(C)[C@@H]5CC[C@]43C)[C@@H]12` [compound 20, Salinomycin-betulinic acid dimer], the IC50 was determined as 1920 ± 820 nM in series [1]; 14700 ± 4880 nM in series [2] (setting [10]); 21700 ± 5280 nM in [3]; 3250 ± 240 nM in series [4] (setting [11]); 5180 ± 720 nM in [5]; 18700 ± 4570 nM in [6]. Further, the IC50 came out at 30300 ± 13800 nM in series [7] and 48600 ± 11800 nM in series [8]. Also, the selectivity ratio at 72 h amounted to 0.62 in the series “in vitro” (human) and 0.39 in “in vitro” (setting [12]).
Turning to `CC[C@@H](C(=O)[C@@H](C)[C@@H](O)[C@H](C)CCc1ccc(C)c(O)c1C(=O)O)[C@H]1O[C@](CC)([C@H]2CC[C@](O)(CC)[C@H](C)O2)C[C@@H]1C` [LAS, lasalocid acid], the IC50 in series [1] came out at 1960 ± 650 nM; in series [2] (setting [10]), 5550 nM; in [3] it was 4440 ± 1340 nM; in [4] (setting [11]), 1370 ± 10 nM; in [5] it was 4050 ± 1020 nM; in series [6] it was 9110 ± 3650 nM. Also, the IC50 was 6810 ± 2850 nM in series [7] and 4550 ± 270 nM in [8]. The selectivity ratio at 72 h in series [9] (human) is 1.5; in series [9] (setting [12]), 2.
Turning to `C=C(C)[C@@H]1CC[C@]2(C(=O)O)CC[C@]3(C)[C@H](CC[C@@H]4[C@@]5(C)CC[C@H](O)C(C)(C)[C@@H]5CC[C@]43C)[C@@H]12` [BET, betulinic acid], the IC50 came to 1420 ± 970 nM in [1]; 9900 ± 2320 nM in series [2] (setting [10]); 12600 ± 1570 nM in series [3]; 7470 ± 1160 nM in series [4] (setting [11]); 16500 ± 6560 nM in [5]; 84800 ± 10000 nM in series [6]. The IC50 in [7] amounted to 7230 ± 1240 nM; in series [8], 8960 ± 1080 nM. The selectivity ratio at 72 h in series [9] (human) stood at 0.81; in series [9] (setting [12]), 9.47.
